Test results: ChEMBL document CHEMBL1201862, “PubChem BioAssay data set” (2004)
Calls of active or inactive are those of the source.

Key:
[1] = target: T1, Sentrin-specific protease 6 (Homo sapiens, UniProt Q9GZR1); test: SAR Analysis of small molecule inhibitors of Sentrin-specific protease 6 (SENP6) using a Luminescent assay. [Related pubchem assays (depositor defined):AID2582, AID2599]; assay type: functional
T1 sequence (Q9GZR1 whole entry): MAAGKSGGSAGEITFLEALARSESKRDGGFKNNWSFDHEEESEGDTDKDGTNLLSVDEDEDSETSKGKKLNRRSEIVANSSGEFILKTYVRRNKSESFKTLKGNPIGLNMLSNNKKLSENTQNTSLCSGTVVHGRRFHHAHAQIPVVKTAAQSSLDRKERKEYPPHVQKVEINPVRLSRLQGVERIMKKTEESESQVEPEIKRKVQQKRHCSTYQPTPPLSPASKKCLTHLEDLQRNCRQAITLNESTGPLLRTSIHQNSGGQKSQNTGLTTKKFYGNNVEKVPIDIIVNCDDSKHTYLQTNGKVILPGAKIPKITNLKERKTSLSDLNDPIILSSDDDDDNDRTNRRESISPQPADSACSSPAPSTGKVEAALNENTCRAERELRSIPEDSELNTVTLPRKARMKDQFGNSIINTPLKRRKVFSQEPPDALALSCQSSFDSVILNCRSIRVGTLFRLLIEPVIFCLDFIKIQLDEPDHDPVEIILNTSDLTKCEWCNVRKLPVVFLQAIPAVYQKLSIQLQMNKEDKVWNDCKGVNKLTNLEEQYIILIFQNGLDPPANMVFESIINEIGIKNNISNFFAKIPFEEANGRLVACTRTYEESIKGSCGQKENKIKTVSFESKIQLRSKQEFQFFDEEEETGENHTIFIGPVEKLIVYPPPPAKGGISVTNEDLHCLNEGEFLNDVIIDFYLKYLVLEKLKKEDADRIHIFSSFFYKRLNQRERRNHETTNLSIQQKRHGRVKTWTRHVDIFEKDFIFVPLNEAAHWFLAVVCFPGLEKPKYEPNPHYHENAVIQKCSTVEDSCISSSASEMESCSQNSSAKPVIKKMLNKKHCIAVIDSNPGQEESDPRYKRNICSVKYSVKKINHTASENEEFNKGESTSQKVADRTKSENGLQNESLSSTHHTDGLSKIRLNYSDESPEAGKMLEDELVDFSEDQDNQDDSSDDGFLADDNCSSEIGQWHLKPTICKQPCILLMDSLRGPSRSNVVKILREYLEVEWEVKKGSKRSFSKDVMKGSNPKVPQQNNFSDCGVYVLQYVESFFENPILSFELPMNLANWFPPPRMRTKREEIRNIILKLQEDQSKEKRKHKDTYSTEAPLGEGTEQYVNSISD

[2] = target: T2, Sentrin-specific protease 7 (Homo sapiens, UniProt Q9BQF6); test: SENP7 protease inhibitors, SAR follow-up, biochemical, luminescence (AID 504497); assay type: functional
T2 sequence (Q9BQF6 whole entry): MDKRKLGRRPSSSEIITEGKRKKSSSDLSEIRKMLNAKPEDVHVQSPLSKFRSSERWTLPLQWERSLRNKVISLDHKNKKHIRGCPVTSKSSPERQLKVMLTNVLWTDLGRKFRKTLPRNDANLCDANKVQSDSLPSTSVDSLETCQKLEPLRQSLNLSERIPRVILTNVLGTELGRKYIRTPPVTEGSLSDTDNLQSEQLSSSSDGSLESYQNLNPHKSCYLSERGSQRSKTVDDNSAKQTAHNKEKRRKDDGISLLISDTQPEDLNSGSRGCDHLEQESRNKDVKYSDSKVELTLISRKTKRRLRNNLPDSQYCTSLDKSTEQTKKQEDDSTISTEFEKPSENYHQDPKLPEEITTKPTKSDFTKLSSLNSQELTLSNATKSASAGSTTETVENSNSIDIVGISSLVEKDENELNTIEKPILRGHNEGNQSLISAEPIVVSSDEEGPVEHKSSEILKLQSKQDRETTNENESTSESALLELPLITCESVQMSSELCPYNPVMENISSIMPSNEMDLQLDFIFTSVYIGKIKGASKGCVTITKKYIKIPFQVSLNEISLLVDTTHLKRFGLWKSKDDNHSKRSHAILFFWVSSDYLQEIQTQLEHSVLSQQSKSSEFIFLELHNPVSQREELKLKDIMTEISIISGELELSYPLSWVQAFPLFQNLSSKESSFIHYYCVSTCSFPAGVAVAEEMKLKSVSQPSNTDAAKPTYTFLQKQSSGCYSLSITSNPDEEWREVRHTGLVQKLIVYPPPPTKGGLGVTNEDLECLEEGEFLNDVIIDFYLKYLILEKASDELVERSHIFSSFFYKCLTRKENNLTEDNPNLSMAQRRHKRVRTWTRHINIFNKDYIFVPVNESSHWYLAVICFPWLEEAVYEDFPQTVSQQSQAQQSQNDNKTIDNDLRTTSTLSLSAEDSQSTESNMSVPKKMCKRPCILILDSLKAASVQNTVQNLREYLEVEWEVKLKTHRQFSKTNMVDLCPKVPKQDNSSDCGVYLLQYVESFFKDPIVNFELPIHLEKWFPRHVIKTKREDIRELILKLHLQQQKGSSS

[3] = target: T3, Sentrin-specific protease 8 (Homo sapiens, UniProt Q96LD8); test: SENP8 protease inhibitors, SAR follow-up, biochemical, luminescence (AID 504501); assay type: functional
T3 sequence (Q96LD8 whole entry): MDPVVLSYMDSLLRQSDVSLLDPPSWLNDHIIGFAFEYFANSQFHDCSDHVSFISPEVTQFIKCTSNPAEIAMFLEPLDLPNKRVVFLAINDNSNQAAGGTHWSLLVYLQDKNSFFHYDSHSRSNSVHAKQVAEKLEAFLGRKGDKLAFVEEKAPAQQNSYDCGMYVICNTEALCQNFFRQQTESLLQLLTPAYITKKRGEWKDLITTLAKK

Caspase-3 = target: T4, Caspase-3 (Homo sapiens, UniProt P42574); test: SAR Analysis of small molecule inhibitors of Sentrin-specific proteases (SENPs) using a Caspase-3 Selectivity assay. [Related pubchem assays (depositor defined):AID2540, AID2599, AID434973, AID489001]; assay type: functional
T4 sequence (P42574 whole entry): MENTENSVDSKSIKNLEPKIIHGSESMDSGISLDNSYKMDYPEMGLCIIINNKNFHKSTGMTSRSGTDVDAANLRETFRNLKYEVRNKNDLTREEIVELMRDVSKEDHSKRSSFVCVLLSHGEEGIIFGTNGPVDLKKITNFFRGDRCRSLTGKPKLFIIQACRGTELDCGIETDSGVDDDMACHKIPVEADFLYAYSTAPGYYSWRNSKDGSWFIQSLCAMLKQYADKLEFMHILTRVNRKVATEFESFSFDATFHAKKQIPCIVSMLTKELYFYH

[4] = Vero cell cytotoxicity, cytotoxicity control for M. tuberculosis inhibitor project, purified and synthesized samples, set 3 (AID 504684); assay type: functional
HEK293 [5] = test: HEK cell cytotoxicity by LDH release, dose response, cytotoxicity control for IDE activator project, fluorescence, HEK cells (AID 588440); assay type: functional, cell-based; settings: Homo sapiens;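 further: cytotoxicity by LDH release measuring loss of membrane integrity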
Cytochrome P450 2D6 = Cytochrome P450 2D6 (Homo sapiens, UniProt P10635);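 further: CYP2D6 member of a cytochrome P450 panel assay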
Insulin-degrading enzyme [6] = target: T5, Insulin-degrading enzyme (Homo sapiens, UniProt P14735); test: activators of endogenous IDE in HEK cells, dose response, cell-based, fluorescence polarization (AID 588439); assay type: functional
T5 sequence (P14735 whole entry): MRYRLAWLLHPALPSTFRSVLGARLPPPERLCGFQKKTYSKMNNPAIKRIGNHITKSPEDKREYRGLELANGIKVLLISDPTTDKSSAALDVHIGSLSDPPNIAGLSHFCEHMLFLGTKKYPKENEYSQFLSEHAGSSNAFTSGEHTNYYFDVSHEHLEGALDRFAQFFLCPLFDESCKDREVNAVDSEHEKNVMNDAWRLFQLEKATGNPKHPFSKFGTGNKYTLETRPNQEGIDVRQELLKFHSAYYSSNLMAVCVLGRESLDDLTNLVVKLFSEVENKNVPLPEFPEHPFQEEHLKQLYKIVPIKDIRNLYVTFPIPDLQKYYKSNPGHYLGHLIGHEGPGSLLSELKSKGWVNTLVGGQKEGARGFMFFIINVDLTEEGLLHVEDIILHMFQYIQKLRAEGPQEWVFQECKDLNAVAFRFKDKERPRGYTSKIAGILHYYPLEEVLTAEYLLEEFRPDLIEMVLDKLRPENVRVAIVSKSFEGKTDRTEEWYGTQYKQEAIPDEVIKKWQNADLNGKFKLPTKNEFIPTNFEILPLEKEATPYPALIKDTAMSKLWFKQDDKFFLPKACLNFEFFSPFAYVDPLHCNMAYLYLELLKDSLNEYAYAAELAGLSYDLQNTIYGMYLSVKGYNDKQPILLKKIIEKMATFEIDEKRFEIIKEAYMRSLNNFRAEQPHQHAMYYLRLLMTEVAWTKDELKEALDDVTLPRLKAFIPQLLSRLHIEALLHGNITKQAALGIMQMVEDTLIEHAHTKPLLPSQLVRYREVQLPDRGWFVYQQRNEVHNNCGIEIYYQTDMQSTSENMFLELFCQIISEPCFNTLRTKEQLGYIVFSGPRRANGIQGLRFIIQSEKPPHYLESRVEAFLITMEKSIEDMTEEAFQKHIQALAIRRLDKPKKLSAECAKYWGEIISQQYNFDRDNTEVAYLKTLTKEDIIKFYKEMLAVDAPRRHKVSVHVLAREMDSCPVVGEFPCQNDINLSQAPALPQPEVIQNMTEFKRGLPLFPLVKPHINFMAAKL

Insulin-degrading enzyme [7] = target: T5, Insulin-degrading enzyme; test: activators of recombinant IDE enzyme, dose response, counter-screen for IDE activator project, biochemical, fluorescence polarization (AID 588681)
Cytochrome P450 2C9 = Cytochrome P450 2C9 (Homo sapiens, UniProt P11712)
Cytochrome P450 3A4 = Cytochrome P450 3A4 (Homo sapiens, UniProt P08684);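 further: CYP3A4 tested as one member of a cytochrome P450 panel screen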
HEK293 [8] = test: optical interference in Abeta FP readout, dose response, artefact control for IDE activator project, biochemical, fluorescence polarization (AID 588442); assay type: functional, cell-based; settings: Homo sapiens
[9] = ARNT/TACC3 interaction disruptors, potency, confirmation, biochemical, AlphaScreen, cherry-picked samples (AID 651703); assay type: functional, Homo sapiens;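 further: His-tagged ARNT PAS-B domain paired with GST-TACC3 E629A dimer coactivator fragment; potency of inhibitors that break up the complex and lower AlphaScreen signal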
[10] = Luminescence Cell-Based Dose Confirmation HTS to Identify Inhibitors of Platelet Dense Granule Release. [Related pubchem assays: 1663 (Primary HTS), 1678 (Summary of Project)]; assay type: functional
[11] = target: Luciferin 4-monooxygenase (Photinus pyralis, UniProt P08659); test: firefly luciferase enzyme inhibitors, dose response, biochemical, luminescence (AID 1891)
[12] = target: Low molecular weight phosphotyrosine protein phosphatase (Homo sapiens, UniProt P24666); assay type: functional; settings: read-out: IC50_Mean;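 further: Dose-response confirmation assay measuring inhibition of LMPTP enzyme activity by fluorescence intensity read-out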
[13] = target: Ras and Rab interactor 1/Tyrosine-protein kinase ABL1 (Homo sapiens, UniProt P00519+Q13671); assay type: functional;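 further: biochemical TR-FRET dose-response test measuring inhibition of binding between Rin1 and Abl proteins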
[14] = target: T6, ATP-dependent translocase ABCB1 (Homo sapiens, UniProt P08183); test: ABCB1 efflux inhibitor potency, dose response, Jurkat-DNR cells, JC-1, flow cytometry, set 2 (AID 504569); assay type: functional; settings: read-out: EC50_MICROM_;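 further: potency of pump inhibitors that raise cellular JC-1 green fluorescence up to the nicardipine level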
[15] = target: T6, ATP-dependent translocase ABCB1; test: ABCG2 efflux pump inhibitor potency, dose response, Ig-MXP3 cells, JC-1, flow cytometry, set 2 (AID 504566); assay type: functional; settings: read-out: EC50_MICROM_;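 further: flow cytometry median green fluorescence of retained JC-1 dye; potency of efflux pump inhibition measured as rising substrate retention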

T6 sequence (P08183 whole entry): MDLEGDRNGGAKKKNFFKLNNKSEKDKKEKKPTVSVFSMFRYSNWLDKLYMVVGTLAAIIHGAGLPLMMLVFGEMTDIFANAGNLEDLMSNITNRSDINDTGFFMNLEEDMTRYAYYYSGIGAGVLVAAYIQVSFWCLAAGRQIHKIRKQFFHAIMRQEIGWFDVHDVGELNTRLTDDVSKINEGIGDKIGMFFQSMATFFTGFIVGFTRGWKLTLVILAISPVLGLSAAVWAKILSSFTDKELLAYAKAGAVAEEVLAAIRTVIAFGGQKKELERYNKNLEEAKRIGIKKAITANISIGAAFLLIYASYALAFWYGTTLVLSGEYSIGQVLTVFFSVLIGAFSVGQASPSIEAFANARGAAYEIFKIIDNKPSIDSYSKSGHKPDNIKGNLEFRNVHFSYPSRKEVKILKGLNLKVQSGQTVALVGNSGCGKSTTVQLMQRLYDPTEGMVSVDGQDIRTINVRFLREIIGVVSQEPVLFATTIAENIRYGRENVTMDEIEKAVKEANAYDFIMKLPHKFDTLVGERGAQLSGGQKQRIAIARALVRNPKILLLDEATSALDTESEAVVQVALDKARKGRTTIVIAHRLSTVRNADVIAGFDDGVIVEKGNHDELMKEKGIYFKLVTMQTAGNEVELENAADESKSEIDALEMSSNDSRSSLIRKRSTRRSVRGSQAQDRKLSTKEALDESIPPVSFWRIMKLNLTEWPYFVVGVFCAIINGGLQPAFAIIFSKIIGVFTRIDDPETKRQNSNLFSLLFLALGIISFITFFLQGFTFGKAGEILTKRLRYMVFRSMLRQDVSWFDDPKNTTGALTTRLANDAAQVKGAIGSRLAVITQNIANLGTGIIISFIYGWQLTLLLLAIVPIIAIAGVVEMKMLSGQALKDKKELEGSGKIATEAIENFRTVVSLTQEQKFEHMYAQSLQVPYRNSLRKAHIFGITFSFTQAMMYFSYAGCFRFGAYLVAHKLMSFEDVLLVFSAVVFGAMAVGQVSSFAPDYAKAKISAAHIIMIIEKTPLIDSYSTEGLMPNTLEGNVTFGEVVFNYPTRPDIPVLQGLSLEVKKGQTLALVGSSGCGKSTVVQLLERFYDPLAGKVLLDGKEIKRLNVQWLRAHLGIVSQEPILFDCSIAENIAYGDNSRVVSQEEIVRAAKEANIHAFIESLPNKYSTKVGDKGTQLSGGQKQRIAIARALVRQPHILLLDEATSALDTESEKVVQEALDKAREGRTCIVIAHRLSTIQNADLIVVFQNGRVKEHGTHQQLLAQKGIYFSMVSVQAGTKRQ
Low molecular weight phosphotyrosine protein phosphatase, sequence (P24666 whole entry): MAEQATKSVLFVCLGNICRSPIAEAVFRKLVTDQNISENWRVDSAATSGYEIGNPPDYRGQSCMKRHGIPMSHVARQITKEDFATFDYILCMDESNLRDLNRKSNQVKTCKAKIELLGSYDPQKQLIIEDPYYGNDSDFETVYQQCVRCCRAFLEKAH
Ras and Rab interactor 1/Tyrosine-protein kinase ABL1, sequence (P00519 whole entry): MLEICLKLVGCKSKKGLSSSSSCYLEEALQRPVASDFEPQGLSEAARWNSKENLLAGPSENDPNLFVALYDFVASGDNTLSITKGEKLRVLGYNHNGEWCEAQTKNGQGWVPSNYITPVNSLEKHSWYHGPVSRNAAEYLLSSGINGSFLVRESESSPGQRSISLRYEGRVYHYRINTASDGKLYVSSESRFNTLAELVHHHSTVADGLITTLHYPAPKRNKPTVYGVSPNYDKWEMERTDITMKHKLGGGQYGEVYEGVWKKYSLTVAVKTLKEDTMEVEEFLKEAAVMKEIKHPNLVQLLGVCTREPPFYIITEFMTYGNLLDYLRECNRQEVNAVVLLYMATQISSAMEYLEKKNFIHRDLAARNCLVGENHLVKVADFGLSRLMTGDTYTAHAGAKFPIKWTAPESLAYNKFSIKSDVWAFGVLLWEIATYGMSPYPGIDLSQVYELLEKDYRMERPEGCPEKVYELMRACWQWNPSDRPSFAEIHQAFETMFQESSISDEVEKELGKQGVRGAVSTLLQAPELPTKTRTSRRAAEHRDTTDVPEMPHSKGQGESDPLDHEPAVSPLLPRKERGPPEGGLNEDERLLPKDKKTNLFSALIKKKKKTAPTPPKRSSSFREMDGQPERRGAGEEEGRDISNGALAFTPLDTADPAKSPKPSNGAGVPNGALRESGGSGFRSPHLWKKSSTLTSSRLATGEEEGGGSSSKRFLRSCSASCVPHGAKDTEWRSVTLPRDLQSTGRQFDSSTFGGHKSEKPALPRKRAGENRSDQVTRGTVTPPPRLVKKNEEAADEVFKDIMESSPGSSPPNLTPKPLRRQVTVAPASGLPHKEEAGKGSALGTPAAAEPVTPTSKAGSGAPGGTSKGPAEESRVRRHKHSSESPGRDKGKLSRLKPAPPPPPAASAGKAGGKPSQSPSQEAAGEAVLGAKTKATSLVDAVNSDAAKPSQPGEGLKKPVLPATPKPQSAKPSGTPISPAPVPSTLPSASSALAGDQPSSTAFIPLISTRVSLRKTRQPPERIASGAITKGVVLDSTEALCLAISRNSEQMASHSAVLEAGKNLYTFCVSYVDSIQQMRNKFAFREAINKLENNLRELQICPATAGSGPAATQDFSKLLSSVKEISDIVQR
Ras and Rab interactor 1/Tyrosine-protein kinase ABL1, sequence (Q13671 whole entry): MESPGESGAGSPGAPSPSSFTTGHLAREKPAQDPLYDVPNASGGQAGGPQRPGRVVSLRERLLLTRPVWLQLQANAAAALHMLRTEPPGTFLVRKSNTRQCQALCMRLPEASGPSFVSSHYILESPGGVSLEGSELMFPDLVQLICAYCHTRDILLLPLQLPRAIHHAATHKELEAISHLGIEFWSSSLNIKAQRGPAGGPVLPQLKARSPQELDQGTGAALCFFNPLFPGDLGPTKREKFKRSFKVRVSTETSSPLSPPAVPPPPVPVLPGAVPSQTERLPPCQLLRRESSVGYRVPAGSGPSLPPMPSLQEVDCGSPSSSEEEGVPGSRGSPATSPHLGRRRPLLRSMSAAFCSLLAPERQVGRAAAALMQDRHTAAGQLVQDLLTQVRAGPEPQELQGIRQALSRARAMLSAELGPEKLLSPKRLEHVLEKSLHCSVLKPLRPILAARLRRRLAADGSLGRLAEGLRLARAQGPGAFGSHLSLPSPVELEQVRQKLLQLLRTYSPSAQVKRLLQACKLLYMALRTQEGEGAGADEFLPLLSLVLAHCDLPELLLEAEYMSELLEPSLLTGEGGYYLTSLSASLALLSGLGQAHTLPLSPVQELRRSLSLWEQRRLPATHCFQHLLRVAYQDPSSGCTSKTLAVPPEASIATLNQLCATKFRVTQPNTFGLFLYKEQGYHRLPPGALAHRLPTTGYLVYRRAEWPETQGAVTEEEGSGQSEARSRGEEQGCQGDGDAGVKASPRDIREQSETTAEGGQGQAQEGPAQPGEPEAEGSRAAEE
Luciferin 4-monooxygenase, sequence (P08659 whole entry): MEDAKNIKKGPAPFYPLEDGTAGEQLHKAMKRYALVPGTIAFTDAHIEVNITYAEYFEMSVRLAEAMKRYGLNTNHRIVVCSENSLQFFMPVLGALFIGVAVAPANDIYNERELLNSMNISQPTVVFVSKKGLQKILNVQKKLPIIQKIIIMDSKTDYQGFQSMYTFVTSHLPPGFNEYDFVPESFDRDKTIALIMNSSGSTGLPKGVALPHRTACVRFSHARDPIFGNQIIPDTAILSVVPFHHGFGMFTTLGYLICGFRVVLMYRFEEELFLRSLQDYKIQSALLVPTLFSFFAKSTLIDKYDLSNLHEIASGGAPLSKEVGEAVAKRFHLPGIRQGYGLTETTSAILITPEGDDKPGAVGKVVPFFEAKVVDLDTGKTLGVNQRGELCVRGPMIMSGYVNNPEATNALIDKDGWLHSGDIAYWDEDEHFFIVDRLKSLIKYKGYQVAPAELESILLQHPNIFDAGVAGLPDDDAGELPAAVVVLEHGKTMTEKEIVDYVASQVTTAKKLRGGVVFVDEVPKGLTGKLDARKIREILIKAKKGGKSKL
Cytochrome P450 3A4, sequence (P08684 whole entry): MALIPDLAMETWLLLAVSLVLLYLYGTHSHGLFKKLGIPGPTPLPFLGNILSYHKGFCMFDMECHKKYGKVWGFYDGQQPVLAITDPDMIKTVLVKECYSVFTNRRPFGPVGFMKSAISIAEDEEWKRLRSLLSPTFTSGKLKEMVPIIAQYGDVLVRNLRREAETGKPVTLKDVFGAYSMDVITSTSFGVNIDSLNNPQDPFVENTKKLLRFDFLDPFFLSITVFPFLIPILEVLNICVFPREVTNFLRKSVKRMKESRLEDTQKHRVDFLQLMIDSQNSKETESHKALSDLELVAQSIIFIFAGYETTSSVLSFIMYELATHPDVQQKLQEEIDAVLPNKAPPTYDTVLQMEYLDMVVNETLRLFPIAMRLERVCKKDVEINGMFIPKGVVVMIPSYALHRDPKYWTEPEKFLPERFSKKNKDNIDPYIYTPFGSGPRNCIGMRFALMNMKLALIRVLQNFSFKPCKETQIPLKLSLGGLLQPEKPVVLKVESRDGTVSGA
Cytochrome P450 2D6, sequence (P10635 whole entry): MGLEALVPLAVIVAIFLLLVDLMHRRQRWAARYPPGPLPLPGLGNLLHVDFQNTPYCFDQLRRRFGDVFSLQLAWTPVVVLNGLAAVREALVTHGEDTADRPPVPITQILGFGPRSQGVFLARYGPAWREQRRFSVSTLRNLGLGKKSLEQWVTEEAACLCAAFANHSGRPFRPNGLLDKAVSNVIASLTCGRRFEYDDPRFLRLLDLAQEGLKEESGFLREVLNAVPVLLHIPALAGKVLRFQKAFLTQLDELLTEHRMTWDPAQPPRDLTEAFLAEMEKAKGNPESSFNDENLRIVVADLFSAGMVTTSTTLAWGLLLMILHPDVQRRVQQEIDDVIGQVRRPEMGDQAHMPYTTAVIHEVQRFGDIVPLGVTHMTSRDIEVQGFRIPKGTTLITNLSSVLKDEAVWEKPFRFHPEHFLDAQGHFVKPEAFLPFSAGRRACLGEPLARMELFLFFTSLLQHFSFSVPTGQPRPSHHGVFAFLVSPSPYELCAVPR

## O=[N+]([O-])c1ccc(/N=C/c2c[nH]c3ccccc23)cc1
[1]
  IC50: > 99 µM (inactive)
[2]
  IC50: > 99 µM (inactive)
[3]
  IC50: > 99 µM (inactive)
Caspase-3
  IC50: > 99 µM (inactive)

## O=c1[nH]c(S)nc2ccccc12
[4]
  CC50: > 100 µM (active)

## CCCCn1nc2cc(C(=O)NCCCCc3ccccc3)ccc2c1OCC
HEK293 [5]
  IC50: > 89.2 µM (inactive)
Cytochrome P450 2D6
  AC50: 3.98 µM (inconclusive)
Insulin-degrading enzyme [6]
  EC50: 22.8 µM (inactive)
Insulin-degrading enzyme [7]
  EC50: > 54.7 µM (inactive)
Cytochrome P450 2C9
  AC50: 31.6 µM (inconclusive)
Cytochrome P450 3A4
  AC50: 6.31 µM (inconclusive)
HEK293 [8]
  EC50: > 54.7 µM (inactive)

## Cc1cccc(C(=O)NCCN2CCOCC2)c1[N+](=O)[O-]
HEK293 [5]
  IC50: > 89.1 µM (inactive)
Insulin-degrading enzyme [6]
  EC50: > 54.6 µM (inactive)
Insulin-degrading enzyme [7]
  EC50: > 54.6 µM (inactive)
HEK293 [8]
  EC50: > 54.6 µM (inactive)

## CCOc1ccc(Nc2cc3n(c(=O)n2)CCc2cc(OC)c(OC)cc2-3)cc1
[9]
  AC50: 102 µM (active)
[10]
  EC50: 12.5 µM (active)
[11]
  EC50: > 112 µM (not active)

## O=C(COc1ccccc1)Nc1sc2c(c1C(=O)NCc1cccnc1)CCCC2
[12]
  IC50: 21.3 µM (inactive)

## CCOC(=O)c1ccc(NC(=O)COc2ccccc2CNC2CCCC2)cc1
[13]
  IC50: 12.2 µM (inactive)

## O=C(c1ccccc1)N1CCN(c2cc(-c3ccccc3)nc3cc(-c4ccc(F)cc4)nn23)CC1
[14]
  EC50: 5.63 µM (active)
[15]
  EC50: 2.35 µM (active)
